Data on two compounds can be found in patent US10975123B2, “Mutant Akt-specific capture agents, compositions, and methods of using and making” (California Institute of Technology, priority 2014, dated 2021).

Where a SMILES comes first, the peptide text is derived from it. Bridges are numbered along the chain shown (N, C = ends). Roman numbers before positions name the chains, in order. Primed or numbered codes have the meaning given here. Triazole bridges read from a SMILES are 1,4-linked. Where no end group is shown, it is not given here. [ ]: non-standard residue; d: D form. The star is where a group is joined. Biotin = O=C1N[C@H]2[C@H](CS[C@H]2CCCCC(=O)*)N1; Lys(N3) = [N-]=[N+]=NCCCC[C@H](N)C(=O)O; PEG6 = NCCOCCOCCOCCOCCOCCOCCC(=O)O; dPra = C#CC[C@@H](N)C(=O)O; PEG5′ = PEG5 linker

For test [1], the target named is T1, E17K GST-PH Domain (E17K Akt1) (Homo sapiens, UniProt P31749, E17K).
T1 construct: The first 124 N-terminal amino acids from full length Akt1 were used as the PH Domain DNA; GST (N); thrombin cleavage site (C); 6His (C); made in house; host or cells: E. coli BL21-DE3-pLys
In words: Full curve ELISA, immobilized ligand, E17K protein. Format: binding. The protocol: The full curve ELISAs were obtained using streptavidin coated ELISA plates (Pierce). The ligands—anchor, biligand, triligand and “eflya” scrambled anchor peptide blank—were laid down at a concentration of 1 μM for one hour. Two lanes of each ligand were used on the plate for both proteins—WT and E17K GST-PH Domain. The plates were blocked with 5% BSA for two hours. Dilutions of both WT and E17K GST-PH Domain proteins were made in 0.5% BSA in 1×TBS starting from 1 μM-0.5 nM by serially diluting 1:2 down a series of 8 samples. For each ligand, a no protein blank was also used. The proteins were incubated with the blocked plate for one hour, washed 3× with 1×TBST+0.5% BSA and tapped dry, then detected with a 1:10,000 dilution of an HRP conjugated anti-GST pAb. The plate was again washed 3× with 1×TBST and tapped dry. It was developed with a 1:1 solution of TMB substrate and development was stopped with 1M H2SO4 and read on a plate reader.

Test [2] concerns E17K Akt1 relative to E17K Akt2. Put plainly: Point ELISA for triligand binding to Akt1 and Akt2 wildtype and E17K mutant. As to conditions: protein 100 nM, immobilized triligand, in words. How it is done: These assays were conducted to test the binding of the triligand to the off-target Akt2 wildtype and mutant proteins. For this assay, all samples were taken in triplicate for statistical purposes. Triligand peptide was first immobilized onto neutravdin ELISA plates (Pierce) for one hour. A scrambled anchor peptide, eflya, was used as the no-ligand blank, as the GST proteins has significant background binding to a blank neutravidin plate. The plates were then blocked with 5% BSA overnight. Protein was laid down at a concentration of 100 nM for samples wells and the blank, scrambled peptide wells. GST protein alone (Abcam) was also incubated with the triligand and scrambled peptide as a control. The proteins were incubated for one hour, then washed three times with 1×TBST. The protein was then detected with 1:10,000 anti-GST mouse mAb (Fisher, #MA4-004) for one hour, washed three times with 1×TBST and developed with a 1:1 mixture of TMB substrate for ten minutes. The samples were plotted by subtracting the blanks and averaging the sample wells. The highest signal was considered 100% binding, and the other samples were normalized accordingly.

Test [3] deals with T2, E17K PH Domain binding to PIP3 (Homo sapiens, UniProt P31749, E17K).
T2 construct: 2 μg of either wildtype or mutant PH Domain-GFP protein (234 nM); made in house; host or cells: HEK-293-6E (used as cell lysate, not purified)
In words: PIP3 agarose inhibition assay, E17K. Format: biochemical. The note with it: in words; for inhibition of E17K PH Domain binding to PIP3-coated resin: ligand 2.38 μM (10x protein), protein 234 nM, western blot; for inhibition of E17K PH Domain binding to PIP3 resin, expanded assay: triligand 0.1-1000 eq relative to protein (234 nM). The text has this:
(§1) The yleaf ligand, the biligand, and the triligand were all tested for their ability to block the E17K PHD binding with PIP3. For this test, PIP3-coated resin (Echelon Biosciences) was used to mimic the PHD interaction with the cell membrane, and could be used to bind the protein as in an immunoprecipitation assay^22. The presence of an effective blocking compound would reduce the ability of the resin to capture the protein, and would thus appear as a diminished signal in the corresponding western blot assay. A control lane containing no capture agent was used to show baseline binding of the protein to the PIP3 resin. […] In an expanded study, we compared the amount of E17K and WT PH domain binding relative to the amount of added triligand (FIG. 5e).
PIP3 Agarose beads (Echelon) were used to detect for the inhibition of PH Domain binding to its substrate, PIP3, upon incubation with the anchor candidate peptide ligands. To test the inhibition of each of the ligands, anchor biligand and triligand, 20 μL of resin slurry was added to each of four tubes and washed three times with 1×TBS. Protein, 2 μg (234 nM) of E17K mutant, was preincubated for one hour at room temperature with either DMSO (no protein blank), anchor, biligand or triligand at 2.38 μM (10× in relation to protein) in 200 μL of 1×TBS. For the control, mutant PH Domain was incubated with 1×TBS and 1 μL […] to mimic the ligand conditions. These protein samples were then added to PIP3 agarose in a Spin-X tube and incubated at room temperature for two hours. The resin was washed three times with 1×TBS with 0.25% IGEPAL CA-630, spun out to dry completely, then denatured with 50 μL 3×SDS gel loading buffer for 10 min at 95° C. The gel loading buffer was spun out of the resin and detected via western blot as per the Streptavidin-Agarose Pulldowns. Inhibition was indicated by a decrease in the amount of PH Domain that was pulled down by the resin.
(§2) Expanded inhibition blots with either WT of E17K mutant protein were performed in a similar fashion. Twelve tubes of 20 μL of PIP3 agarose were washed three times with 1×TBS. 2 μg of either wildtype or mutant PH Domain-GFP protein (234 nM) in 200 uL 1×TBS were preincubated for 30 minutes with differing concentrations of triligand: 0.1 eq (23.4 nM), 1 eq (234 nM), 10 eq (2.34 μM), 100 eq (23.4 μM), and 1000 eq (234 μM). The protein and triligand solutions were then incubated with the PIP3 resin for 2 hours at room temperature. The resins were washed, eluted, and blotted as per all PH Domain western blots.

The target in test [4] is T3, WT PH Domain binding to PIP3 (Homo sapiens, UniProt P31749).
T3 construct: 2 μg of either wildtype or mutant PH Domain-GFP protein (234 nM); made in house; host or cells: HEK-293-6E (used as cell lysate, not purified)
In words: PIP3 agarose inhibition assay, WT. Format: biochemical. The note with it: triligand 0.1-1000 eq relative to protein (234 nM), in words.
Text: as §1, §2

T2 sequence (P31749 5-108 E17K limits assumed): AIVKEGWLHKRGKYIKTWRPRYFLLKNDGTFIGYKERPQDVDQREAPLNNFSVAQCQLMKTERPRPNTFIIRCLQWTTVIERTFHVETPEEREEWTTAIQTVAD
T1 sequence (P31749 1-124 E17K): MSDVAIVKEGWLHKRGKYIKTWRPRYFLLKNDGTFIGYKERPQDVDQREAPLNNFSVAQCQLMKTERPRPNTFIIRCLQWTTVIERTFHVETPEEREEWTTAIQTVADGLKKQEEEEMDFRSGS
T3 sequence (P31749 5-108 limits assumed): as the sequence (P31749 5-108 E17K limits assumed) above, with K13E counted along it

`CC[C@@H](C)[C@@H](NC(=O)CCOCCOCCOCCOCCOCCOCCNC(=O)CCCC[C@@H]1SC[C@@H]2NC(=O)N[C@@H]21)C(=O)N[C@@H](C(=O)N[C@H](CC(=O)O)C(=O)N[C@H](C)C(=O)N[C@H](CCC(=O)O)C(=O)N[C@H](Cc1cn(CCCC[C@H](NC(C)=O)C(=O)N[C@H](Cc2ccc(O)cc2)C(=O)N[C@H](CC(C)C)C(=O)N[C@H](CCC(=O)O)C(=O)N[C@H](C)C(=O)N[C@H](Cc2ccccc2)C(=O)N[C@H](Cc2cn(CCCC[C@H](NC(C)=O)C(=O)N[C@H](Cc3ccc(O)cc3)C(=O)N[C@H](CCCCN)C(=O)N[C@H](CO)C(=O)N[C@H](Cc3ccc(O)cc3)C(N)=O)nn2)C(=O)O)nn1)C(=O)O)C(C)C` [triligand] (I: Ac-[Lys(N3)][dY][dL][dE][dA][dF][dPra]-OH / II: {Biotin-PEG6}-[dI][dV][dD][dA][dE][dPra]-OH / III: Ac-[Lys(N3)][dY][dK][dS][dY]-NH2; triazole I:1-II:6, I:7-III:1; N-terminus assumed): in test [1] (in words), the “change in binding affinity for the E17K protein versus the preceding ligand (ELISA)” value was “does not show an affinity increase for the E17K protein” and the “selectivity for E17K Akt1 relative to WT Akt1 (ELISA)” value is “largely recovered”. Moreover, in test [1] (in words, listed as ivdae), the “selectivity for E17K Akt1 relative to WT Akt1 (ELISA)” value is listed as “maintains the selectivity over the WT protein”. The concentration giving a half-maximal response (EC50) in test [1] (ligand immobilized at 1 μM on streptavidin plate, Hill fit with common saturation and slope, read-out: EC50 for the E17K Akt1 from ELISA binding curves) came out at 45 nM. Further, the “preference for E17K Akt1 relative to E17K Akt2” value in test [2] is listed as “slight preference for E17K Akt1 relative to E17K Akt2”. Moreover, in test [3], the “inhibition of E17K PH Domain binding to PIP3-coated resin” value is “exhibited the ability to block the PHD-PIP3 interaction, with the triligand being the most effective” and the “inhibition of E17K PH Domain binding to PIP3 resin, expanded assay” value is recorded as “significant selective inhibition of the E17K mutant relative to the WT”.
On to “triligand 8: form of the ivdae-yleaf-yksy triligand used in PIP3 inhibition assays (peptide 1 {Biotin-PEG5′}-[dI][dV][dD][dA][dE]; peptide 2 [dY][dL][dE][dA][dF]; peptide 3 [dY][dK][dS][dY]; not fully specified (N-terminus, C-terminus); also: triazole to a chain's N/C-terminus via Pra/Lys(N3), triazole to a chain's N/C-terminus via Pra/Lys(N3))”, for which, in test [3], the “inhibition of E17K PH Domain binding to PIP3-coated resin” value was “decreased binding of the protein” and the “inhibition of E17K PH Domain binding to PIP3 resin, expanded assay” value was “significant inhibition”. Further, the “inhibition of WT PH Domain binding to PIP3 resin, expanded assay” value in test [4] is on record as “little inhibition of this protein”.
